Data from patent publication US8778982B2, “Synergistic microbicidal compositions” (Rohm and Haas Company, priority 2007, dated 2014).
Values joined by “and” are separate entries in the source; they are usually repeats but may differ in a detail not shown here. Equal values may be shown once. Read-outs that look alike come from different tables or passages of the source.

How the values were obtained:
Format in all cases: cell-based
[1] = system: Escherichia coli (E. coli—ATCC #8739); experiment: Synergy test, microtiter plate high resolution MIC assay, M9GY medium, bacterium; conditions: for Qb: B alone where Qa = 0; for MIC: Escherichia coli, read-out: MIC of the component acting alone (QA or QB)
Text: (§1) One measure of synergism is the industrially accepted method described by Kull, F. C.; Eisman, P. C.; Sylwestrowicz, H. D. and Mayer, R. L., in Applied Microbiology 9:538-541 (1961), using the ratio determined by the formula: Qa/QA+Qb/QB=Synergy Index(“SI”) wherein: • QA=concentration of compound A (first component) in ppm, acting alone, which produced an end point (MIC of Compound A). • Qa=concentration of compound A in ppm, in the mixture, which produced an end point. • QB=concentration of compound B (second component) in ppm, acting alone, which produced an end point (MIC of Compound B). • Qb=concentration of compound B in ppm, in the mixture, which produced an end point.
(§2) When the sum of Qa/QA and Qb/QB is greater than one, antagonism is indicated. […] The lower the SI, the greater is the synergy shown by that particular mixture. The minimum inhibitory concentration (MIC) of a microbicide is the lowest concentration tested under a specific set of conditions that prevents the growth of the tested microorganisms.
(§3) Synergy tests were conducted using standard microtiter plate assays with media designed for optimal growth of the test microorganism. Minimal salt medium supplemented with 0.2% glucose and 0.1% yeast extract (M9GY medium) was used for testing bacteria; Potato Dextrose Broth (PDB medium) was used for testing yeast and mold. In this method, a wide range of combinations of microbicides and other personal care raw materials was tested by conducting high resolution MIC assays in the presence of various concentrations of CMIT/MIT, MIT, or BIT. High resolution MICs were determined by adding varying amounts of microbicide to one column of a microtitre plate and doing subsequent […] dilutions using an automated liquid handling system to obtain a series of endpoints ranging from 2 ppm to 10,000 ppm active ingredient.
(§4) The synergy of the combinations of the present invention was determined against a bacterium, Escherichia coli (E. coli—ATCC #8739), a yeast, Candida albicans (C. albicans—ATCC 10231), and a mold, Aspergillus niger (A. niger—ATCC 16404). The bacteria were used at a concentration of about 5×10^6 bacteria per mL and the yeast and mold at 5×10^5 fungi per mL. These microorganisms are representative of natural contaminants in many consumer and industrial applications. […] (yeast and mold) or 30° C. (bacteria).

[2] = system: Aspergillus niger (A. niger—ATCC 16404); experiment: Synergy test, microtiter plate high resolution MIC assay, PDB medium, mold; conditions: for Qb: B alone where Qa = 0; for MIC: Aspergillus niger, read-out: MIC of the component acting alone (QA or QB)
Text: as §1, §2, §3, §4

[3] = system: Candida albicans (C. albicans—ATCC 10231); experiment: Synergy test, microtiter plate high resolution MIC assay, PDB medium, yeast; conditions: for Qb: B alone where Qa = 0; for MIC: Candida albicans, read-out: MIC of the component acting alone (QA or QB)
Text: as §1, §2, §3, §4

[4] = E. coli 8739 - M9GY (1 day), A = MIT, B = Myristamidopropyl PG-dimonium chloride phosphate
[5] = A. niger 16404 - PDB (3 days), A = MIT, B = Myristamidopropyl PG-dimonium chloride phosphate
[6] = C. albicans 10231 - PDB (6 days), A = MIT, B = Myristamidopropyl PG-dimonium chloride phosphate
[7] = E. coli 8739 - M9GY (1 day), A = BIT, B = Caprylic acid
[8] = A. niger 16404 - PDB (3 days), A = BIT, B = Caprylic acid
[9] = C. albicans 10231 - PDB (6 days), A = BIT, B = Caprylic acid
[10] = ATCC8739, 48 h, E. coli 8739, M9GY, 2 days, 30° C.
[11] = ATCC16404, 72 h, A. niger 16404, PDB, 3 days, 25° C.
[12] = E. coli 8739 - M9GY (6 days), A = MIT, B = Ethylhexylglycerin
[13] = A. niger 16404 - PDB (10 days), A = MIT, B = Ethylhexylglycerin
[14] = C. albicans 10231 - PDB (6 days), A = MIT, B = Ethylhexylglycerin

“1-propanaminium, 3,3′,3″-[phosphinylidynetris(oxy)]-tris-[N-(aminopropyl)-2-hydroxy-N,N-dimethyl-N,N′,N″-tri-C6-18 acyl deriv. trichlorides” was tested. Which “MIC of the component acting alone (Qa or Qb with the other component at 0)” value (“MIC … (Qa or Qb with the other component at 0)” for short) ([1]; E. coli 8739, M9GY, 1 day) did it give?
Its value is 80 ppm.

And the “SI (synergy index)” value ([1]; E. coli 8739, M9GY, 1 day)?
The value was 1.00.

What about the “Synergy Index (SI) = Qa/QA+Qb/QB” value ([1]; E. coli 8739, M9GY, 2 days) of the same compound?
The value was 1.00.

And the “MIC of the component acting alone (QA or QB)” value (shortened to “MIC … (QA or QB)”) ([1]; E. coli 8739, M9GY, 2 days, 30° C.)?
Its value is 100 ppm.

What about the SI [1, 4] of the same compound?
Its SI is 1.00.

And the Qb [1, 4]?
The Qb was 80 ppm.

What about the “Synergy Index (SI) = Qa/QA+Qb/QB” value ([2]; A. niger 16404, PDB, 3 days) of the same compound?
Its value is 1.00.

And the “MIC … (QA or QB)” value ([2]; A. niger 16404, PDB, 3 days, 25° C.)?
Its value is 2000 ppm.

And the “MIC … (Qa or Qb with the other component at 0)” value ([2]; A. niger 16404, PDB, 4 days)?
Its value is 2000 ppm.

What about the “SI (synergy index)” value ([2]; A. niger 16404, PDB, 4 days) of the same compound?
Its value is 1.00.

What about the SI [2, 5] of the same compound?
Its SI is 1.00.

What about the Qb [2, 5] of the same compound?
The Qb was 2000 ppm.

And the “Synergy Index (SI) = Qa/QA+Qb/QB” value ([3]; C. albicans 10231, PDB, 1 day)?
The value was 1.00.

What about the “MIC … (QA or QB)” value ([3]; C. albicans 10231, PDB, 1 day, 25° C.) of the same compound?
Its value is 800 ppm.

What about the “MIC … (Qa or Qb with the other component at 0)” value ([3]; C. albicans 10231, PDB, 2 days) of the same compound?
The value was 2000 ppm.

And the “SI (synergy index)” value ([3]; C. albicans 10231, PDB, 2 days)?
The value was 1.00.

What about the SI [3, 6] of the same compound?
Its SI is 1.00.

What about the Qb [3, 6] of the same compound?
Its Qb is 1000 ppm.

Which results are given for `O=c1[nH]sc2ccccc12` [BIT, 1,2-benzisothiazolin-3-one]?
MIC of the component acting alone (Qa or Qb with the other component at 0) ([1]; E. coli 8739, M9GY, 1 day): 20.00 ppm; SI (synergy index) ([1]; E. coli 8739, M9GY, 1 day): 1.00; MIC of the component acting alone (Qa or Qb with the other component at 0) ([1]; E. coli 8739, M9GY, 2 days): 20.00 ppm; SI (synergy index) ([1]; E. coli 8739, M9GY, 2 days): 1.00; SI [1, 7]: 1.00; Qa ([1]; E. coli 8739 - M9GY (1 day), A = BIT, B = Caprylic acid, A alone where Qb = 0): 20 ppm; MIC of the component acting alone (Qa or Qb with the other component at 0) ([2]; A. niger 16404, PDB, 3 days): 50 ppm; SI (synergy index) ([2]; A. niger 16404, PDB, 3 days): 1.00; MIC of the component acting alone (Qa or Qb with the other component at 0) ([2]; A. niger 16404, PDB, 4 days): 50 ppm; SI (synergy index) ([2]; A. niger 16404, PDB, 4 days): 1.00; MIC of the component acting alone (Qa or Qb with the other component at 0) ([2]; A. niger 16404, PDB, 10 days): 100.00 ppm; SI (synergy index) ([2]; A. niger 16404, PDB, 10 days): 1.00; SI [2, 8]: 1.00; Qa ([2]; A. niger 16404 - PDB (3 days), A = BIT, B = Caprylic acid, A alone where Qb = 0): 50 ppm; MIC of the component acting alone (Qa or Qb with the other component at 0) ([3]; C. albicans 10231, PDB, 1 day): 15.00 ppm; SI (synergy index) ([3]; C. albicans 10231, PDB, 1 day): 1.00; MIC of the component acting alone (Qa or Qb with the other component at 0) ([3]; C. albicans 10231, PDB, 2 days): 30.00 ppm; SI (synergy index) ([3]; C. albicans 10231, PDB, 2 days): 1.00; MIC of the component acting alone (Qa or Qb with the other component at 0) ([3]; C. albicans 10231, PDB, 6 days): 30.00 ppm and 40.00 ppm; SI (synergy index) ([3]; C. albicans 10231, PDB, 6 days): 1.00; SI [3, 9]: 1.00; Qa ([3]; C. albicans 10231 - PDB (6 days), A = BIT, B = Caprylic acid, A alone where Qb = 0): 20 ppm

For `CCCCCCCC(=O)O` [Caprylic acid, octanoic acid], which “Synergy Index (SI) = Qa/QA+Qb/QB” value ([1]; E. coli 8739, M9GY, 1 day) is on record?
The value was 1.00.

What about the “Synergy Index (SI) = Qa/QA+Qb/QB” value ([1]; E. coli 8739, M9GY, 2 days) of the same compound?
The value was 1.00.

And the SI [1, 7]?
The SI was 1.00.

And the Qb [1, 7]?
The Qb was 8000 ppm.

What about the MIC ([1]; ATCC8739, 24 h, E. coli 8739, M9GY, 1 day, 30° C.) of the same compound?
Its MIC is 8000 µg/mL.

And the MIC [1, 10]?
The MIC was 8000 µg/mL.

And the “Synergy Index (SI) = Qa/QA+Qb/QB” value ([2]; A. niger 16404, PDB, 3 days)?
Its value is 1.00.

And the “Synergy Index (SI) = Qa/QA+Qb/QB” value ([2]; A. niger 16404, PDB, 10 days)?
The value was 1.00.

What about the SI [2, 8] of the same compound?
The SI was 1.00.

What about the Qb [2, 8] of the same compound?
The Qb was 2000 ppm.

And the MIC [2, 11]?
The MIC was 2000 µg/mL.

And the MIC ([2]; ATCC16404, 240 h, A. niger 16404, PDB, 10 days, 25° C.)?
The MIC was 2000 µg/mL.

What about the “Synergy Index (SI) = Qa/QA+Qb/QB” value ([3]; C. albicans 10231, PDB, 6 days) of the same compound?
Its value is 1.00.

What about the SI [3, 9] of the same compound?
The SI was 1.00.

What about the Qb [3, 9] of the same compound?
The Qb was 2000 ppm.

What about the MIC ([3]; ATCC10231, 144 h, C. albicans 10231, PDB, 6 days, 25° C.) of the same compound?
The MIC was 2000 µg/mL.

Which results are given for `CCCCCCC(O)CO` (centres unmarked) [Caprylyl glycol, 1,2-octanediol]?
Synergy Index (SI) = Qa/QA+Qb/QB ([1]; E. coli 8739, M9GY, 2 days): 1.00; MIC [1, 10]: 2000 µg/mL; Synergy Index (SI) = Qa/QA+Qb/QB ([2]; A. niger 16404, PDB, 3 days): 1.00; MIC [2, 11]: 3000 µg/mL; Synergy Index (SI) = Qa/QA+Qb/QB ([3]; C. albicans 10231, PDB, 1 day): 1.00; MIC ([3]; ATCC10231, 24 h, C. albicans 10231, PDB, 1 day, 25° C.): 3000 µg/mL

What does the source list for `CCCCC(CC)COCC(O)CO` (centres unmarked) [Ehylhexylglycerin]?
MIC of the component acting alone (Qa or Qb with the other component at 0) ([1]; E. coli 8739, M9GY, 2 days): 3000 ppm; SI (synergy index) ([1]; E. coli 8739, M9GY, 2 days): 1.00; MIC of the component acting alone (Qa or Qb with the other component at 0) ([2]; A. niger 16404, PDB, 3 days): 2000 ppm; SI (synergy index) ([2]; A. niger 16404, PDB, 3 days): 1.00; MIC of the component acting alone (Qa or Qb with the other component at 0) ([3]; C. albicans 10231, PDB, 6 days): 10000 ppm; SI (synergy index) ([3]; C. albicans 10231, PDB, 6 days): 1.00

Which “Synergy Index (SI) = Qa/QA+Qb/QB” value ([1]; E. coli 8739, M9GY, 1 day) does the source give for `CCCCC(CC)COCC(O)CO` (centres unmarked) [Ethylhexylglycerin, 3-[(2-ethylhexyl)oxy]-1,2propanediol] here?
Its value is 1.00.

What about the SI [1, 12] of the same compound?
Its SI is 1.00.

And the Qb [1, 12]?
Its Qb is 3000 ppm.

And the MIC ([1]; ATCC8739, 24 h)?
Its MIC is 3000 µg/mL.

And the “Synergy Index (SI) = Qa/QA+Qb/QB” value ([2]; A. niger 16404, PDB, 3 days)?
Its value is 1.00.

And the SI [2, 13]?
Its SI is 1.00.

And the Qb [2, 13]?
Its Qb is 2000 ppm.

And the MIC ([2]; ATCC16404, 72 h)?
The MIC was 2000 µg/mL.

And the “Synergy Index (SI) = Qa/QA+Qb/QB” value ([3]; C. albicans 10231, PDB, 1 day)?
Its value is 1.00.

And the SI [3, 14]?
The SI was 1.00.

What about the Qb [3, 14] of the same compound?
The Qb was 2000 ppm.

What about the MIC ([3]; ATCC10231, 24 h) of the same compound?
The MIC was 2000 µg/mL.
